Values after ≈ are worked out from the molar mass of the structure shown. “Also recorded” adds a separate entry of the source. Like-named read-outs stand apart in the source and are kept apart here.
Assays:
[1] = in vitro
Source text: The synthesised derivatives were screened for their abilities to cross the BBB using the parallel artificial membrane permeability assay (PAMPA) because this ability is a critical developmental requirement for any drug targeting neurodegenerative disorders or depression.

[2] = PAMPA-BBB reported values; cited from earlier work
[3] = target: T1, MAO-B (Homo sapiens, UniProt P27338); test: Reversibility of MAO-B inhibition by dialysis; format: biochemical; conditions: for MAO-B residual activity, dialysed (AD): after 6 h dialysis
T1 sequence (P27338 1-520): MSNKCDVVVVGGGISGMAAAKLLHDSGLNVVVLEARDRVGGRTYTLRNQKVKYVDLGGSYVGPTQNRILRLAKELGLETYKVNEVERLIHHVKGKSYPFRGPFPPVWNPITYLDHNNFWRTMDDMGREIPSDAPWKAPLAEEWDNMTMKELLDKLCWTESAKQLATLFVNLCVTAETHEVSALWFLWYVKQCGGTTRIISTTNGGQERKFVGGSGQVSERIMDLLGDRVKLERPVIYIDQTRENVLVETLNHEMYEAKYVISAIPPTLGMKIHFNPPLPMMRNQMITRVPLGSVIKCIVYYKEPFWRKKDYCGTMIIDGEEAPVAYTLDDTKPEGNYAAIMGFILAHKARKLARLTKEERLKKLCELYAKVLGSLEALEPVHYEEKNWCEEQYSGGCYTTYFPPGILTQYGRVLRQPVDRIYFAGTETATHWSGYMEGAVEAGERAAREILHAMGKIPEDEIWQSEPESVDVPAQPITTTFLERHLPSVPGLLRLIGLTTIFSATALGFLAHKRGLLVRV
Procedure: Figure 6. […] For recovery experiments, preincubated enzyme mixtures were dialysed as described in the text.
Inhibition types (reversible or irreversible) were determined by dialysis, as previously described^51,52, but by using 0.06 mM kynuramine and 0.3 mM benzylamine. For the experiment of AChE, 0.5 mM ATCI was used. […] Residual activities were calculated using the measured activities of undialyzed (AU) and dialysed (AD) solutions and the activities of untreated controls (i.e. without inhibitor).

[4] = system: Hela cells; test: Total ROS assay in H2O2-treated cells; format: cell-based, human; conditions: for ROS levels in H2O2-treated Hela cells: 40 µg/mL compound, 100 μg/mL H2O2, fluorescent image analysis
Source text: ROS are considered to be the radicals primarily responsible for the neuronal death observed in various neurodegenerative disorders.
Figure 7.

[5] = target: T2, AChE (Electrophorus electricus, UniProt O42275); test: AChE inhibition assay (modified Ellman method, ATCI); format: biochemical; conditions: 15 min pre-incubation, mean ± SE
T2 sequence (O42275 24-633): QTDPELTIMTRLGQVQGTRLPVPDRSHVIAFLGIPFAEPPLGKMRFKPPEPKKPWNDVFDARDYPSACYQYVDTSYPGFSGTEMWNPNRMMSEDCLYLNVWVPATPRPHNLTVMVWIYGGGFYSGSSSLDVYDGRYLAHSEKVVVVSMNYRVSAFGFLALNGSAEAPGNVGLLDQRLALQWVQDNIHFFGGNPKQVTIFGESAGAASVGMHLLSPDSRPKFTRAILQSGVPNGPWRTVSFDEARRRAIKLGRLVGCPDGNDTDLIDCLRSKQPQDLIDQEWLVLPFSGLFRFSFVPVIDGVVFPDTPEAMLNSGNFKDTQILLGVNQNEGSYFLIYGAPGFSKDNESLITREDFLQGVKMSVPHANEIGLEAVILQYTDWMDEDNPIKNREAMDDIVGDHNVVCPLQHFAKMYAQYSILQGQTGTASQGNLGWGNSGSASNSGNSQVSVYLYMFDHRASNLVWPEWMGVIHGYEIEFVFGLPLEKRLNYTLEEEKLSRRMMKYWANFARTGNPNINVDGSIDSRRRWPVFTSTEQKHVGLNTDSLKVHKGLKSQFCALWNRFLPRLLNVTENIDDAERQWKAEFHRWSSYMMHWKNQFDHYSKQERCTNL

[6] = system: normal VERO cells; test: MTT cytotoxicity assay; conditions: for IC50: Chlorocebus sabaeus, Vero, read-out: IC50 in normal VERO cells
[7] = target: T1, MAO-B; test: Kinetics of MAO-B inhibition (Lineweaver-Burk and secondary plots); format: biochemical
Procedure: (§1) MAO-A, MAO-B, AChE and BChE activities were measured after exposure to inhibitors at a concentration of 10 µM. […] IC50 values were determined by measuring the residual enzyme activities. […] Ki values and inhibitor types were determined by kinetic testing, as previously described. […] Lineweaver–Burk plots and their secondary plots were used to determine Ki values and inhibitor types.

[8] = target: BChE (Equus caballus, UniProt P81908); test: biochemical; conditions: for remaining activity at 10 µM: read-out: Residual activities (%) BChE (10 µM)
Sequence of BChE (P81908 whole entry): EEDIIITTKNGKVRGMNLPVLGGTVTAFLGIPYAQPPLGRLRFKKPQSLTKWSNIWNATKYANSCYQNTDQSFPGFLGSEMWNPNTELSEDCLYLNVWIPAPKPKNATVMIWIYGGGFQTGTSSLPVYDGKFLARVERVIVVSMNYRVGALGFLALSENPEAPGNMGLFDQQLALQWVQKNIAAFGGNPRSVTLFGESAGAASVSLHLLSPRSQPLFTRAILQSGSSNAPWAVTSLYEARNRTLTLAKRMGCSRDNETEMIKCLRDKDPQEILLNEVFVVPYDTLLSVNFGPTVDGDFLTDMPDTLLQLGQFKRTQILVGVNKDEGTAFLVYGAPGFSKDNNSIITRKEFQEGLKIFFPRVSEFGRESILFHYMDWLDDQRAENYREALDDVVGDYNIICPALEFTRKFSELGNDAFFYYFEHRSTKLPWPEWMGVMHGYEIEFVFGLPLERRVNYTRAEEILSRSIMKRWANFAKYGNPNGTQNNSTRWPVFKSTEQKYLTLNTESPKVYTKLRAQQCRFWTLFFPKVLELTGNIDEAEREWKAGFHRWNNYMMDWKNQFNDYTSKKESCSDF
Procedure: Colour development was performed using 0.5 mM 5,5′-dithiobis (2-nitrobenzoic acid) (DTNB), which reacts with thiocholine (a product of ATCI by AChE or of BTCI by BChE) to produce 5-thio 2-nitrobenzoic acid.
as §1

[9] = target: T3, recombinant human MAO-A (Homo sapiens, UniProt P21397); test: MAO-A inhibition assay (kynuramine substrate); format: biochemical; conditions: for remaining activity at 10 µM: read-out: Residual activities (%) MAO-A (10 µM)
T3 sequence (P21397 1-527): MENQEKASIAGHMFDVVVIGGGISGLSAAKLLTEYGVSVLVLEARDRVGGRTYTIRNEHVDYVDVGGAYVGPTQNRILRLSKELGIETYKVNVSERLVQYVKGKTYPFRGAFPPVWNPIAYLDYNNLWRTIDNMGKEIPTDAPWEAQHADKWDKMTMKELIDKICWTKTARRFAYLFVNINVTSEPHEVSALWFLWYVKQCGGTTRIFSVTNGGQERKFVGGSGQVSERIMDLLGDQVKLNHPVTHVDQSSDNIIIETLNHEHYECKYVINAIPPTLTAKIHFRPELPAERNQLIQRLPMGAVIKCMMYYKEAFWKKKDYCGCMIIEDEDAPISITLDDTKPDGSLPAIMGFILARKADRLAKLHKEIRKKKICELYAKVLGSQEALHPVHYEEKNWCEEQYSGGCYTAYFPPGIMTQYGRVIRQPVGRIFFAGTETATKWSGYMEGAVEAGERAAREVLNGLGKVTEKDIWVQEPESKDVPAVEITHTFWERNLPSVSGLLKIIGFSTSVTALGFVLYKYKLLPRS
Procedure: as §1

[10] = target: T1, MAO-B; test: MAO-B inhibition assay (benzylamine substrate); format: biochemical; conditions: for remaining activity at 1 µM: read-out: Residual activities (%) MAO-B (1.0 µM); for SI = IC50 of MAO-A/IC50 of MAO-B: selectivity for MAO-B over MAO-A
[11] = target: T2, AChE; test: Reversibility of AChE inhibition by dialysis; format: biochemical; conditions: for Reversibility of AChE inhibition: dialysis; for AChE residual activity, dialysed (AD) / AChE residual activity, undialyzed (AU): inhibitor ~2 × IC50; for AChE residual activity, dialysed (AD): after 6 h dialysis; for AChE residual activity, undialyzed (AU): before dialysis
[12] = target: T2, AChE; test: Kinetics of AChE inhibition (Lineweaver-Burk and secondary plots); format: biochemical
Procedure: as §1

SMILES | Papp ([1]; PAMPA) [×10⁻⁶ cm/s] | Prediction (BBB permeation class) ([1]; PAMPA-BBB, class from Pe) | remaining activity at 10 µM [8] [%] | remaining activity at 1 µM [10] [%] | remaining activity at 10 µM ([9]; inhibitor 10 µM, mean ± SE) [%] | IC50 ([9]; mean ± SE) [µM] | IC50 [10] [µM] | SI = IC50 of MAO-A/IC50 of MAO-B [10] | also measured
NCCc1ccc(O)c(O)c1 [Dopamine, reference compound] | – | – | – | – | – | – | – | – | Prediction (BBB permeation class) ([1]; PAMPA): CNS- (key: CNS+ (high): Pe (10^−6 cm s^−1) > 4.00; CNS- (low): Pe (10^−6 cm s^−1) <2.00; CNS± (uncertain): Pe (10^−6 cm s^−1) from 4.00 to 2.00); Bibliography Pe (×10^−6 cm s^−1) [2]: 0.2 ×10^−6 cm s^−1
NCCNC(=O)c1ccc(Cl)cn1 [Lazabemide, reference compound] | – | – | – | – | – | – | – | – | MAO-B residual activity, dialysed (AD) ([3]; inhibitor ~2 × IC50): 90.0%; MAO-B residual activity, undialyzed (AU) ([3]; inhibitor ~2 × IC50, before dialysis): 38.8%
CCn1cc(C(=O)O)c(=O)c2cc(F)c(N3CCNC(C)C3)c(F)c21 (stereo not shown) [Lomefloxacin, reference compound] | 1.26 ± 0.01 | CNS- (CNS- (low): Pe (10^−6 cm s^−1) <2.00) | – | – | – | – | – | – | –
O=C(/C=C/c1ccccc1)c1ccc(N2CCOCC2)cc1 [MO1] | 16.34 ± 0.16 | CNS+ (CNS+ (high): Pe (10^−6 cm s^−1) > 4.00) | 62.9 ± 2.97 | 38.1 ± 9.5 | – | – | – | – | BBB permeation ([1]; PAMPA-BBB): crossed the blood–brain barrier; ROS levels in H2O2-treated Hela cells [4]: significantly lower ROS levels than MO9; Colony formation induced by H2O2 ([4]; Hela cells): markedly reduced; IC50 [5]: 16.1 ± 2.24 µM; IC50 [6]: 195 µg/mL (≈ 665 µM); Toxicity to normal VERO cells ([6]; MTT assay): non-toxic; Type of MAO-B inhibition [7]: reversible mixed-type inhibitor; remaining activity at 10 µM [9]: 94.2 ± 0.62%; Reversibility of MAO-B inhibition ([3]; dialysis): reversible inhibitor; MAO-B residual activity, dialysed (AD) ([3]; inhibitor ~2 × IC50): 77.1%; IC50 ([10]; read-out: IC50 (µM) MAO-B, mean ± SE): 0.03 ± 0.062 µM
O=C(/C=C/c1ccc(O)cc1)c1ccc(N2CCOCC2)cc1 [MO2] | – | – | 63.5 ± 3.3 | 54.5 ± 5.28 | 93.8 ± 1.34 | > 40 | 0.7 ± 0.23 | > 57.1 | –
COc1ccc(/C=C/C(=O)c2ccc(N3CCOCC3)cc2)cc1 [MO3] | – | – | 56.8 ± 2.97 | 79.9 ± 5.28 | 91 ± 3.17 | > 40 | 1.01 ± 0.08 | >39.6 | –
Cc1ccc(/C=C/C(=O)c2ccc(N3CCOCC3)cc2)cc1 [MO4] | – | – | 80.3 ± 6.43 | 49 ± 1.45 | 70.2 ± 1.24 | 25.8 ± 1.58 | 0.33 ± 0.03 | 78.2 | –
CN(C)c1ccc(/C=C/C(=O)c2ccc(N3CCOCC3)cc2)cc1 [MO5] | 14.4 ± 0.81 | CNS+ (CNS+ (high): Pe (10^−6 cm s^−1) > 4.00) | – | – | – | – | – | – | BBB permeation ([1]; PAMPA-BBB): crossed the blood–brain barrier; Reversibility of AChE inhibition [11]: reversible inhibitors; AChE residual activity, dialysed (AD) [11]: 79.2%; AChE residual activity, undialyzed (AU) [11]: 35.8%; ROS levels in H2O2-treated Hela cells [4]: significantly lower ROS levels than MO9; IC50 [5]: 6.1 ± 0.0048 µM; Residual activities (%) AChE (10 µM) ([5]; inhibitor 10 µM): 34.5 ± 9.51%; Type of AChE inhibition [12]: reversibly competitively inhibited; IC50 in normal VERO cells ([6]; MTT assay): 185.44 µg/mL (≈ 551 µM); Toxicity to normal VERO cells ([6]; MTT assay): non-toxic; Residual activities (%) BChE (10 µM) ([8]; inhibitor 10 µM, mean ± SE): 60.86 ± 1.07%; Residual activities (%) MAO-A (10 µM) ([9]; inhibitor 10 µM, mean ± SE): 88.1 ± 3.43%
CCc1ccc(/C=C/C(=O)c2ccc(N3CCOCC3)cc2)cc1 [MO6] | – | – | 70.96 ± 0.36 | 64.1 ± 1.37 | 12.3 ± 1.58 | 8.7 ± 1.32 | 0.64 ± 0.04 | 13.6 | –
O=C(/C=C/c1ccc([N+](=O)[O-])cc1)c1ccc(N2CCOCC2)cc1 [MO7] | – | – | 70.2 ± 4.76 | 26.1 ± 5.44 | – | 7.1 ± 0.41 | 0.25 ± 0.05 | 28.4 | –
O=C(/C=C/c1ccc(Cl)cc1)c1ccc(N2CCOCC2)cc1 [MO8] | – | – | 74.61 ± 0.73 | 34.6 ± 5.44 | 83.7 ± 4.02 | > 40 | 0.32 ± 0.16 | >125.0 | –
O=C(/C=C/c1ccc(Br)cc1)c1ccc(N2CCOCC2)cc1 [MO9] | 14.61 ± 0.08 | CNS+ (CNS+ (high): Pe (10^−6 cm s^−1) > 4.00) | 70.2 ± 5.5 | 51.3 ± 2.42 | 79.8 ± 1.54 | > 40 | 0.36 ± 0.16 | >111.1 | BBB permeation ([1]; PAMPA-BBB): crossed the blood–brain barrier; Reversibility of AChE inhibition [11]: reversible inhibitors; AChE residual activity, dialysed (AD) [11]: 80.7%; AChE residual activity, undialyzed (AU) [11]: 33.8%; Type of AChE inhibition [12]: reversibly noncompetitively inhibited; also recorded: non-competitively; IC50 [6]: 188 µg/mL (≈ 506 µM); Toxicity to normal VERO cells ([6]; MTT assay): non-toxic
CN1C(C(=O)Nc2ccccn2)=C(O)c2ccccc2S1(=O)=O [Piroxicam, reference compound] | 2.35 ± 0.3 | CNS+/- | – | – | – | – | – | – | Bibliography Pe (×10^−6 cm s^−1) [2]: 2.5 ×10^−6 cm s^−1

— paper PMC7808749, “Morpholine-based chalcones as dual-acting monoamine oxidase-B and acetylcholinesterase inhibitors: synthesis and biochemical investigations” (Journal of Enzyme Inhibition and Medicinal Chemistry, 2021)
